According to ChEMBL document CHEMBL5046315, “CRCM5484: A BET-BDII Selective Compound with Differential Anti-leukemic Drug Modulation” (J Med Chem, 2022):
Calls of active or inactive are those of the source.

Tests used:
MOLM-14 [1] = assay: Potentiation of ponatinib-induced antileukemic activity against human MOLM-14 cells at 4.3 uM in presence of bone-marrow derived stromal cell-conditioned medium; type: functional, cell-based
CCRF-CEM [2] = assay: Potentiation of ruxolitinib-induced antileukemic activity against human CCRF-CEM cells at 4.3 uM in presence of bone-marrow derived stromal cell-conditioned medium; type: functional, cell-based
MOLM-14 [3] = assay: Potentiation of idarubicin-induced antileukemic activity against human MOLM-14 cells at 4.3 uM in presence of bone-marrow derived stromal cell-conditioned medium; type: functional, cell-based
U-937 [4] = assay: Potentiation of SGI-110-induced antileukemic activity against human U-937 cells at 4.3 uM in presence of bone-marrow derived stromal cell-conditioned medium; type: functional, cell-based
U-937 [5] = assay: Potentiation of volasertib-induced antileukemic activity against human U-937 cells at 4.3 uM in presence of bone-marrow derived stromal cell-conditioned medium; type: functional, cell-based
U-937 [6] = assay: Potentiation of niotinib-induced antileukemic activity against human U-937 cells at 4.3 uM in presence of bone-marrow derived stromal cell-conditioned medium; type: functional, cell-based
MOLM-14 [7] = assay: Potentiation of daunorubicine-induced antileukemic activity against human MOLM-14 cells at 4.3 uM in presence of bone-marrow derived stromal cell-conditioned medium; type: functional, cell-based
U-937 [8] = assay: Potentiation of sorafenib-induced antileukemic activity against human U-937 cells at 4.3 uM in presence of bone-marrow derived stromal cell-conditioned medium; type: functional, cell-based
CCRF-CEM [9] = assay: Potentiation of docetaxel-induced antileukemic activity against human CCRF-CEM cells at 4.3 uM in presence of bone-marrow derived stromal cell-conditioned medium; type: functional, cell-based
CCRF-CEM [10] = assay: Potentiation of VX680-induced antileukemic activity against human CCRF-CEM cells at 4.3 uM in presence of bone-marrow derived stromal cell-conditioned medium; type: functional, cell-based
MOLM-14 [11] = assay: Potentiation of bleomycine-induced antileukemic activity against human MOLM-14 cells at 4.3 uM in presence of bone-marrow derived stromal cell-conditioned medium; type: functional, cell-based
CCRF-CEM [12] = assay: Potentiation of dexamethasone-induced antileukemic activity against human CCRF-CEM cells at 4.3 uM in presence of bone-marrow derived stromal cell-conditioned medium; type: functional, cell-based
MOLM-14 [13] = assay: Potentiation of palbociclib-induced antileukemic activity against human MOLM-14 cells at 4.3 uM in presence of bone-marrow derived stromal cell-conditioned medium; type: functional, cell-based
U-937 [14] = assay: Potentiation of rigosertib-induced antileukemic activity against human U-937 cells at 4.3 uM in presence of bone-marrow derived stromal cell-conditioned medium; type: functional, cell-based
CCRF-CEM [15] = assay: Potentiation of decitabine-induced antileukemic activity against human CCRF-CEM cells at 4.3 uM in presence of bone-marrow derived stromal cell-conditioned medium; type: functional, cell-based
CCRF-CEM [16] = assay: Potentiation of cyclopamine-induced antileukemic activity against human CCRF-CEM cells at 4.3 uM in presence of bone-marrow derived stromal cell-conditioned medium; type: functional, cell-based
MOLM-14 [17] = assay: Potentiation of AGI-5198-induced antileukemic activity against human MOLM-14 cells at 4.3 uM in presence of bone-marrow derived stromal cell-conditioned medium; type: functional, cell-based
U-937 [18] = assay: Potentiation of erlotinib-induced antileukemic activity against human U-937 cells at 4.3 uM in presence of bone-marrow derived stromal cell-conditioned medium; type: functional, cell-based
CCRF-CEM [19] = assay: Potentiation of gefitinib-induced antileukemic activity against human CCRF-CEM cells at 4.3 uM in presence of bone-marrow derived stromal cell-conditioned medium; type: functional, cell-based
MOLM-14 [20] = assay: Potentiation of docetaxel-induced antileukemic activity against human MOLM-14 cells at 4.3 uM in presence of bone-marrow derived stromal cell-conditioned medium; type: functional, cell-based
MOLM-14 [21] = assay: Potentiation of nelarabine-induced antileukemic activity against human MOLM-14 cells at 4.3 uM in presence of bone-marrow derived stromal cell-conditioned medium; type: functional, cell-based
CCRF-CEM [22] = assay: Potentiation of topotecan-induced antileukemic activity against human CCRF-CEM cells at 4.3 uM in presence of bone-marrow derived stromal cell-conditioned medium; type: functional, cell-based
CCRF-CEM [23] = assay: Potentiation of SGI-110-induced antileukemic activity against human CCRF-CEM cells at 4.3 uM in presence of bone-marrow derived stromal cell-conditioned medium; type: functional, cell-based
MOLM-14 [24] = assay: Potentiation of AG-221-induced antileukemic activity against human MOLM-14 cells at 4.3 uM in presence of bone-marrow derived stromal cell-conditioned medium; type: functional, cell-based
U-937 [25] = assay: Potentiation of tretinoin-induced antileukemic activity against human U-937 cells at 4.3 uM in presence of bone-marrow derived stromal cell-conditioned medium; type: functional, cell-based
CCRF-CEM [26] = assay: Potentiation of birinapant-induced antileukemic activity against human CCRF-CEM cells at 4.3 uM in presence of bone-marrow derived stromal cell-conditioned medium; type: functional, cell-based
U-937 [27] = assay: Potentiation of asparaginase-induced antileukemic activity against human U-937 cells at 4.3 uM in presence of bone-marrow derived stromal cell-conditioned medium; type: functional, cell-based
U-937 [28] = assay: Potentiation of JQ1-induced antileukemic activity against human U-937 cells at 4.3 uM in presence of bone-marrow derived stromal cell-conditioned medium; type: functional, cell-based
U-937 [29] = assay: Potentiation of navitoclax-induced antileukemic activity against human U-937 cells at 4.3 uM in presence of bone-marrow derived stromal cell-conditioned medium; type: functional, cell-based
CCRF-CEM [30] = assay: Potentiation of clofarabine-induced antileukemic activity against human CCRF-CEM cells at 4.3 uM in presence of bone-marrow derived stromal cell-conditioned medium; type: functional, cell-based
U-937 [31] = assay: Potentiation of docetaxel-induced antileukemic activity against human U-937 cells at 4.3 uM in presence of bone-marrow derived stromal cell-conditioned medium; type: functional, cell-based
U-937 [32] = assay: Potentiation of SGI-1776-induced antileukemic activity against human U-937 cells at 4.3 uM in presence of bone-marrow derived stromal cell-conditioned medium; type: functional, cell-based
U-937 [33] = assay: Potentiation of -mastinib -induced antileukemic activity against human U-937 cells at 4.3 uM in presence of bone-marrow derived stromal cell-conditioned medium; type: functional, cell-based
MOLM-14 [34] = assay: Potentiation of BKM120-induced antileukemic activity against human MOLM-14 cells at 4.3 uM in presence of bone-marrow derived stromal cell-conditioned medium; type: functional, cell-based
MOLM-14 [35] = assay: Potentiation of imatinib-induced antileukemic activity against human MOLM-14 cells at 4.3 uM in presence of bone-marrow derived stromal cell-conditioned medium; type: functional, cell-based
CCRF-CEM [36] = assay: Potentiation of navitoclax-induced antileukemic activity against human CCRF-CEM cells at 4.3 uM in presence of bone-marrow derived stromal cell-conditioned medium; type: functional, cell-based
U-937 [37] = assay: Potentiation of BKM120-induced antileukemic activity against human U-937 cells at 4.3 uM in presence of bone-marrow derived stromal cell-conditioned medium; type: functional, cell-based
[38] = molecular target: Bromodomain-containing protein 2 (Homo sapiens, UniProt P25440); assay: Inhibition of human partial length BRD2-BD2 (E348 to D455 residues) expressed in bacterial system at 1 uM by BROMOscan method relative to control
Sequence of Bromodomain-containing protein 2 (P25440 whole entry, looked up, the tested form may be a part): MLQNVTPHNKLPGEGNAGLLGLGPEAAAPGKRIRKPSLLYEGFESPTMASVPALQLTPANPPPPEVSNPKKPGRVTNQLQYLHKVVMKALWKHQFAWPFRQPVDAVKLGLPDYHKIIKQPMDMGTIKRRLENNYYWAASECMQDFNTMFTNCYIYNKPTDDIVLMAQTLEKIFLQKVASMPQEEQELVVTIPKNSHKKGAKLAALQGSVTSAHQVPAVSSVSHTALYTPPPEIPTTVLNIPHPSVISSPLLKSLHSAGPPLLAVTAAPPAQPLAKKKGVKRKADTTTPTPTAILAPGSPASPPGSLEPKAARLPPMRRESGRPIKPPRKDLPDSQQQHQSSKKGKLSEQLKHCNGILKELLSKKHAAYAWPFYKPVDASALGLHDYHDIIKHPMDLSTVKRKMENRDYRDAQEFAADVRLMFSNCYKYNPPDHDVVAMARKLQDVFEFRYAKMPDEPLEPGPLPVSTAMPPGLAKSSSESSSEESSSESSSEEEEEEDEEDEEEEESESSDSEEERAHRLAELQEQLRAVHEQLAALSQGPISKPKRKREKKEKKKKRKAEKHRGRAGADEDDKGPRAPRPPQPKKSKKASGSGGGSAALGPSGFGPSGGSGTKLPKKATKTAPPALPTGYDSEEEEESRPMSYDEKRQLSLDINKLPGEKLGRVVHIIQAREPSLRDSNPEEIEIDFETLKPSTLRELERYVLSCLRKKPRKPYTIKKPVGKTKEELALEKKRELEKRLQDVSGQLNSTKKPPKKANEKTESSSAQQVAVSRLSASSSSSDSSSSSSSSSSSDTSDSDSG

MOLM-14 [39] = assay: Potentiation of arsenic-induced antileukemic activity against human MOLM-14 cells at 4.3 uM in presence of bone-marrow derived stromal cell-conditioned medium; type: functional, cell-based
CCRF-CEM [40] = assay: Potentiation of niotinib-induced antileukemic activity against human CCRF-CEM cells at 4.3 uM in presence of bone-marrow derived stromal cell-conditioned medium; type: functional, cell-based
MOLM-14 [41] = assay: Potentiation of EPZ5676-induced antileukemic activity against human MOLM-14 cells at 4.3 uM in presence of bone-marrow derived stromal cell-conditioned medium; type: functional, cell-based

CC(=O)N1CCc2c(sc3nc(SCC(=O)Nc4cccnc4C)n(Cc4ccco4)c(=O)c23)C1
37%: inhibition [38]
inactive: Activity (MOLM-14 [1]) | Activity (CCRF-CEM [2]) | Activity (MOLM-14 [3]) | Activity (U-937 [4]) | Activity (U-937 [5]) | Activity (U-937 [6]) | Activity (MOLM-14 [7]) | Activity (U-937 [8]) | Activity (CCRF-CEM [9]) | Activity (CCRF-CEM [10]) | Activity (MOLM-14 [11]) | Activity (CCRF-CEM [12]) | Activity (MOLM-14 [13]) | Activity (U-937 [14]) | Activity (CCRF-CEM [15]) | Activity (CCRF-CEM [16]) | Activity (MOLM-14 [17]) | Activity (U-937 [18]) | Activity (CCRF-CEM [19]) | Activity (MOLM-14 [20]) | Activity (MOLM-14 [21]) | Activity (CCRF-CEM [22]) | Activity (CCRF-CEM [23]) | Activity (MOLM-14 [24]) | Activity (U-937 [25]) | Activity (CCRF-CEM [26]) | Activity (U-937 [27]) | Activity (U-937 [28]) | Activity (U-937 [29]) | Activity (CCRF-CEM [30]) | Activity (U-937 [31]) | Activity (U-937 [32]) | Activity (U-937 [33]) | Activity (MOLM-14 [34]) | Activity (MOLM-14 [35]) | Activity (CCRF-CEM [36]) | Activity (U-937 [37]) | Activity (MOLM-14 [39]) | Activity (CCRF-CEM [40]) | Activity (MOLM-14 [41])
